Results as given in PubChem BioAssay (NCI).
“And” between values parts separate entries of the source, which are not always exact repeats. Equal entries are not always repeated.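 Values below derive from 48-hour exposures of cells grown in 96-well plates, with endpoints linearly interpolated between the two concentrations bracketing the appropriate inhibition level. GI50 = concentration required for 50% inhibition of growth. TGI is the concentration that stops growth completely.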

How the values were obtained:
Assay in all cases: NCI tumour cell line growth inhibition, 48 h
HOP-18 NSCLC = test system: HOP-18 NSCLC
DMS 273 small cell lung = test system: DMS 273 small cell lung
LXFL 529 NSCLC = test system: LXFL 529 NSCLC
DMS 114 small cell lung = test system: DMS 114 small cell lung
SNB-78 CNS = test system: SNB-78 CNS
KM20L2 colon = test system: KM20L2 colon
RXF-631 renal = test system: RXF-631 renal
XF 498 CNS = test system: XF 498 CNS
P388/ADR leukemia = test system: P388/ADR leukemia
P388 leukemia = test system: P388 leukemia
SN12K1 renal = test system: SN12K1 renal

SMILES | TGI (HOP-18 NSCLC) | TGI (DMS 273 small cell lung) | TGI (LXFL 529 NSCLC) | TGI (DMS 114 small cell lung) | TGI (SNB-78 CNS) | GI50 (KM20L2 colon) | TGI (KM20L2 colon) | GI50 (HOP-18 NSCLC) | TGI (RXF-631 renal) | GI50 (LXFL 529 NSCLC) | GI50 (DMS 114 small cell lung) | TGI (XF 498 CNS) | TGI (P388/ADR leukemia) | TGI (P388 leukemia) | TGI (SN12K1 renal)
O=c1cc(-c2ccccc2)[nH]c2c(F)ccc(F)c12 | > 100 µM | > 100 µM | > 100 µM | > 100 µM | – | – | – | – | – | – | – | – | – | – | –
COc1cccc2c1C(=O)c1c(O)c3c(c(O)c1C2=O)C[C@@](O)(C(=O)CO)CC3OC1CC(NCCCCC(OC(C)=O)OC(C)=O)C(O)C(C)O1 (stereo partly drawn) | 0.00926 µM and 0.0807 µM | – | – | 0.00291 µM | 0.00804 µM | 0.000858 µM | 0.00875 µM | 0.0078 µM | 0.00803 µM | 0.00263 µM | 0.00083 µM | – | – | – | –
CCC(C)Cn1c(C)nc2c1C(=O)c1ccccc1C2=O (stereo not drawn) | – | 64 µM | > 100 µM | – | > 100 µM | – | > 100 µM | – | – | – | – | 56 µM | – | – | –
CN(C)CCSc1nccc(-c2ccc(-c3ccnc(SCCN(C)C)n3)s2)n1 | 67.2 µM | 22.8 µM | – | 25.5 µM | 31 µM | – | 23.6 µM | – | – | – | – | 29.4 µM | 6.74 µM | 3.18 µM | 24.6 µM
CC1[C@@H]2C[C@@H]3O[C@@]34[C@H]3CCC5Cc6nc7c(nc6C[C@@]5(C)C3(O)CC(=O)[C@@]24CO[C@]12OC(C)(C)CC2O)CC1CC[C@@H]2C3=C[C@H]4O[C@@]5(O[C@@](C)(CO)C[C@@H]5O)C(C)[C@@]4(O)[C@]3(C)[C@@H](O)CC2[C@]1(C)C7 (stereo partly drawn) | > 3.52 µM | 0.0177 µM | – | 1.09 µM | 0.622 µM | – | 0.244 µM | – | – | – | – | 0.0328 µM | 0.232 µM | 0.357 µM | 0.666 µM
C[S+](C)C1(c2ccccc2)C(=O)c2ccccc2C1=O | > 100 µM | > 100 µM | > 100 µM | > 100 µM | > 100 µM | – | > 100 µM | – | – | – | – | 94 µM | – | – | –
